Results reported in US20190269629A1, “COMPOSITIONS AND METHODS FOR INHIBITING GROWTH OF ACSL4-OVEREXPRESSING TUMORS” (CONSEJO NACIONAL DE INVESTIGACIONES CIENTÍFICAS Y TÉCNICAS …, priority 2016, published 2019).

What was measured:
Assay type in all cases: cell-based, human
MDA-MB-231 cells [1] = experiment: BrdU cell proliferation assay, MDA-MB-231 cells; conditions: for inhibition of MDA-MB-231 cell proliferation (BrdU): Triacsin C 0.01-0.10 M and/or doxorubicin 0.025 μM or paclitaxel 0.1 μM, 96 h; for dosage used in combination therapy relative to the minimum dose that produces a significant inhibition when administered alone: Triacsin C: in cell culture; for dosage used in combination therapy relative to the minimum dose that produces a significant inhibition when administered alone / amount used in combination relative to the maximum effective dose when applied alone (same inhibitory effect): combination therapy
Description: Subsequently, cell proliferation was measured by BrdU incorporation assay. Data arc presented as inhibition of cell proliferation compared to control cells. White bars indicate single inhibitor treatment while grey bars indicate combined inhibitor treatment.
MDA-MB-231 cells were plated as described in FIG. 3 and then incubated with Triacsin C ([…]) and/or A. doxorubicin (0.025 μM), B. paclitaxel (0.1 μM) for 96 h. Subsequently, cell proliferation was measured by BrdU incorporation assay. Data are presented as inhibition of cell proliferation compared to control cells. White bars indicate single inhibitor treatment while black bars indicate combined inhibitor treatment.
(§1) Cell proliferation assays were measured by the MTT and 5-bromo-2′-deoxyuridine (BrdU) incorporation as previously described (Maloberti P. M. et al., 2010).
(§2) MBA-MB-231 cells were plated at a density of 4000 cells/well in 96-well plates with 10% FBS-supplemented D-MEM medium and allowed to adhere overnight at 37° C. in a humidified, 5% CO2 atmosphere. The medium was then changed to serum-free medium. […] Subsequently, cell proliferation was measured by the bromo-deoxvuridine (BrdU) incorporation assay.
as §2, with “MDA-MB-231” for “MBA-MB-231”, “bromo-deoxyuridine” for “bromo-deoxvuridine”
(§3) MBA-MB-231 cells were plated at a density of 4000 cells/well in 96-well plates with 10% FBS-supplemented D-MEM medium and allowed to adhere overnight at 37° C. in a humidified, 5% CO2 atmosphere. The medium was then changed to serum-free medium. After 24 h, the cells were switched to 10% FBS-supplemented D-MEM medium and incubated with doxorubicin and/or Triacsin C for 96 h. Subsequently, cell proliferation was measured by the bromo-deoxyuridine (BrdU) incorporation assay.
as §3, with “MDA-MB-231 cells” for “MBA-MB-231 cells”, “C. m” for “C. in”, “24 h.” for “24 h,”, “with paclitaxel” for “with doxorubicin”, “the bromo-deoxvuridine” for “the bromo-deoxyuridine”

ABCC8 = experiment: Western blot of ABCC8 in MDA-MB-231 cells after ACSL4 inhibition; conditions: Triacsin C 1 uM or rosiglitazone 100 uM, 48 h
Text: (§4) A) MDA-MB-231 cells were transfected with the pSUPER.retro plasmid containing a shRNA targeted to ACSL4 (shRNA-ACSL4) or an empty plasmid (mock) as previously described ((Maloberti P. M. et al., 2010, supra).
(§5) One month post selection, whole cell extracts were obtained and analyzed by Western blot as previously described using the indicated antibodies. […] Forty-eight hours post-treatment, whole cell extracts were obtained and analyzed by Western blot as previously described using the indicated antibodies. Representative blots (upper panels) and integrated optical density of protein levels (lower panels) quantified and normalized with the corresponding 1-tubulin signal are shown.
(§6) J Biol Chem 2001; 276(27):24667-24673).
(§7) MDA-MB-231 cells were seeded the day before and grown up to 80% confluence. […] The empty vector was used as control. Transfection efficiency was estimated by counting fluorescent cells transfected with the pRc/CMVi plasmid containing the enhanced form of green fluorescent protein [Maloberti et al.; 2010].

ABCC4 = experiment: Western blot of ABCC4 in MDA-MB-231 cells after ACSL4 inhibition; conditions: Triacsin C 1 uM or rosiglitazone 100 uM, 48 h
Text: as §4, §5, §6, §7

ABCG2 = experiment: Western blot of ABCG2 in MDA-MB-231 cells after ACSL4 inhibition; conditions: Triacsin C 1 uM or rosiglitazone 100 uM, 48 h
Text: as §4, §5, §6, §7

[2] = tested on: MCF-7 Tet-Off empty vector cells; experiment: BrdU cell proliferation assay, MCF-7 Tet-Off empty vector cells; conditions: doxorubicin 0.025, 0.050, 0.100 μM or paclitaxel 0.1, 0.2, 0.5 μM, 96 h
Description: (§8) MCF-7 Tet-Off empty vector and MCF-7 Tet-Off/ACSL4 cells were plated at a density of 4000 cells/well in 96-well plates with 10% FBS-supplemented D-MEM and allowed to adhere overnight at 37° C. in a humidified 5% CO2 atmosphere. The medium was then changed to serum-free medium. After 24 h, the cells were switched to 10% FBS-supplemented D-MEM with A. doxorubicin (0.025-0.100 μM) and B. paclitaxel (0.1-0.5 μM), and with doxycycline (0.025 μM) where indicated. After 48 h, cell proliferation was measured by BrdU incorporation assay. Data are presented as inhibition of cell proliferation compared to control cells.
as §1
Separate experiments were carried out for each one of the tested chemotherapeutic agents. […]
MCF-7 Tet-Off empty vector and MCF-7 Tet-Off/ACSL4 cells were plated at a density of 4000 cells/well in 96-well plates with 10% FBS-supplemented D-MEM medium and allowed to adhere overnight at 37° C. in a humidified, 5% CO2 atmosphere. […] Subsequently, cell proliferation was measured by the bromo-deoxyuridine (BrdU) incorporation assay. […]

MDA-MB-231 cells [3] = experiment: BrdU cell proliferation assay, MDA-MB-231 cells; conditions: rosiglitazone 20 μM and/or doxorubicin 0.025 μM or paclitaxel 0.5 μM; 96 h
[4] = tested on: MCF-7 Tet-Off/ACSL4 cells; experiment: BrdU cell proliferation assay, MCF-7 Tet-Off/ACSL4 cells
Description: as §8, §1
Separate experiments were carried out for each one of the tested chemotherapeutic agents. Each chemotherapeutic agent was first tested alone at the concentrations used, and then in combination with doxycycline, for each of the cell groups: MCF-7 Tet-Off/ACSL4 cells, MCF-7 Tet-Off empty vector cells and doxycycline-treated MCF-7 Tet-Off/ACSL4 cells, the latter is used to specifically override ACSL4 expression.
as §3, with “MCF-7 Tet-Off empty vector and MCF-7 Tet-Off/ACSL4” for “MBA-MB-231”, “at varying (sub-therapeutically effective or non-effective per se) concentrations (0.025, 0.050, 0.100 μM)” for “and/or Triacsin C”
as §3, with “MCF-7 Tet-Off empty vector and MCF-7 Tet-Off/ACSL4” for “MBA-MB-231”, “paclitaxel at varying (sub-therapeutically effective or non-effective per se) concentrations (0.1, 0.2, 0.5 μM)” for “doxorubicin and/or Triacsin C”

[5] = MCF-7 Tet-Off/ACSL4 cells, doxorubicin 0.025, 0.050, 0.100 μM or paclitaxel 0.1, 0.2, 0.5 μM, 96 h
[6] = doxycycline-treated MCF-7 Tet-Off/ACSL4 cells, doxorubicin 0.025-0.100 μM or paclitaxel 0.1-0.5 μM

| Compound | inhibition of MDA-MB-231 cell proliferation (BrdU) (MDA-MB-231 cells [1]) | dosage used in combination therapy relative to the minimum dose that produces a significant inhibition when administered alone (MDA-MB-231 cells [1]) | ABCC8 protein levels (ABCC8) | ABCC4 protein levels (ABCC4) | ABCG2 protein levels (ABCG2) | amount used in combination relative to the maximum effective dose when applied alone (same inhibitory effect) (MDA-MB-231 cells [1]) [times lower] | inhibition of cell proliferation (BrdU) [2] | inhibition of MDA-MB-231 cell proliferation (BrdU) (MDA-MB-231 cells [3]) | inhibition of cell proliferation (BrdU) [4, 5] | inhibition of cell proliferation (BrdU) [4, 6] |
| --- | --- | --- | --- | --- | --- | --- | --- | --- | --- | --- |
| CCC/C=C/C/C=C/C=C/C=NNN=O [Triacsin C, N-(((2E,4E,7E)-undeca-2,4,7-trienylidene)amino)nitrous amide] | very little effect | 5 times lower | markedly decreased | markedly decreased | markedly decreased | – | – | – | – | – |
| COc1cccc2c1C(=O)c1c(O)c3c(c(O)c1C2=O)C[C@@](O)(C(=O)CO)C[C@@H]3O[C@H]1C[C@H](N)[C@H](O)[C@H](C)O1 [doxorubicin] | very little effect | 2.6 times lower | – | – | – | 12 | inhibited proliferation | very little effect | very little or no effect | significantly increased inhibition of cell proliferation |
| CC(=O)O[C@H]1C(=O)[C@@]2(C)[C@H]([C@H](OC(=O)c3ccccc3)[C@]3(O)C[C@H](OC(=O)[C@H](O)[C@@H](NC(=O)c4ccccc4)c4ccccc4)C(C)=C1C3(C)C)[C@]1(OC(C)=O)CO[C@@H]1C[C@@H]2O [paclitaxel] | very little effect | half | – | – | – | 5 | inhibited proliferation | very little effect | little or no effect | significantly increased inhibition of cell proliferation |
